The subject of assay [1] is hypercholesterolemic rat models. In words: Plasma triglyceride and cholesterol lowering activity in hypercholesterolemic rat models. It counts as in vivo, Male Sprague Dawley rats. The following applies: dose 10 mg/kg orally for 3 days. As to the method:
b) Plasma triglyceride and Cholesterol Lowering Activity in Hypercholesterolemic Rat Models
Male Sprague Dawley rats (NIN stock) were bred in DRF animal house. Animals were maintained under 12 hour light and dark cycle at 25±1° C. Rats of 180-200 gram body weight range were used for the experiment. Animals are made hypercholesterolemic by feeding 2% cholesterol and 1% sodium cholate mixed with standard laboratory chow [National Institute of Nutrition (NIN), Hyderabad, India] for 6 days. Throughout the experimental period the animals are maintained on the same diet (Petit, D., Bonnefis, M. T., Rey, C and Infante, R. Effects of ciprofibrate on liver lipids and lipoprotein synthesis in normo- and hyperlipidemic rats. Atherosclerosis. 1988.74: 215-225).
The test compounds were administered orally at a dose 0.1 to 30 mg/kg/day for 3 days. Control group is treated with vehicle alone (0.25% Carboxymethylcellulose; dose 10 ml/kg).
The blood samples were collected in fed state 1 hour after drug administration on 0 and 3 day of compound treatment. The blood was collected from the retro-orbital sinus through heparinised capillary in EDTA containing tubes. After centrifugation, plasma sample is separated for total cholesterol, HDL and triglyceride estimations. Measurement of plasma triglyceride (TG), total cholesterol (TC) and HDL are done using commercial kits (Dr. Reddy's Laboratory, Diagnostic Division, India). LDL and VLDL cholesterol were calculated from the data obtained for total cholesterol, HDL and triglyceride. The reduction of various parameters examined are calculated according to the formula given below.
Formulae for Calculation: • 1. Percent reduction in Blood sugar/triglycerides/total cholesterol were calculated according to the formula: [formula] • OC=Zero day control group value • OT=Zero day treated group value • TC=Test day control group value • TT=Test day treated group value • 2. LDL and VLDL cholesterol levels were calculated according to the formula: [formula] VLDL cholesterol in mg/dl=[Total cholesterol−HDL cholesterol−LDL cholesterol]mg/dl.

The next assay has as its target T1, hPPARα (Homo sapiens, UniProt Q07869).
T1 sequence (Q07869 239-466 limits assumed): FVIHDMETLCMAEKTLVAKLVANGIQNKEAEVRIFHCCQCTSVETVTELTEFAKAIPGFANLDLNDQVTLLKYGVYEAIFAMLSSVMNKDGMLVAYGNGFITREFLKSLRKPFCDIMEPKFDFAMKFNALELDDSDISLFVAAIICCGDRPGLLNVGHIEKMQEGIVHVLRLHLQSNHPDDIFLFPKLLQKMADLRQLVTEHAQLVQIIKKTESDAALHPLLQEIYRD
Conditions: compound concentration 50 μM; luciferase activity, HEK-293 cells. On the procedure:
a) Determination of hPPARα Activity
Ligand binding domain of hPPARα was fused to DNA binding domain of Yeast transcription factor GAL4 in eucaryotic expression vector. Using superfect (Qiagen, Germany) as transfecting reagent HEK-293 cells were transfected with this plasmid and a reporter plasmid harboring the luciferase gene driven by a GAL4 specific promoter. Compound was added at different concentrations after 42 hrs of transfection and incubated overnight.

Structures can show the parent of a compound that is named as a salt.

Consider `CCO[C@@H](Cc1ccc(OCCN2c3ccccc3Oc3ccccc32)cc1)C(=O)O` [Example 3, (−)-3-[4-[2-(Phenoxazin-10-yl)ethoxy]phenyl]-2-ethoxypropanoic acid metformin salt], for which, in assay [1] (LDL cholesterol calculated from TC, HDL and TG), the LDL is given as 46. Also, in assay [1] (VLDL cholesterol calculated from TC, HDL and TG), the VLDL is given as 82. Moreover, the HDL in assay [1] (plasma HDL) is 64. This molecule returned a TC in assay [1] (plasma total cholesterol, percent reduction by formula of b285) of 82. Also, the TG in assay [1] (plasma triglyceride, percent reduction by formula of b285) is 47.

As for “(−)-3-[4-[2-(Phenoxazin-10-yl)ethoxy]phenyl]-2-ethoxypropanoic acid phenylglycinol salt [Example 12]”, on hPPARα, the PPARα is 3.7.

Values taken from patent US6897199B2, “Pharmaceutically acceptable salts of phenoxazine and phenothiazine compounds” (Dr. Reddy's Laboratories Ltd., priority 2001, dated 2005).
